From patent US8871751B2, “Compositions and methods relating to nuclear hormone and steroid hormone receptors including inhibitors of estrogen receptor alpha-mediated gene expression and inhibition of breast cancer” (The Board of Trustees of the University of Illinois, priority 2008, dated 2014)

Tests used:
[1] = biological target: T1, human PR-B binding to flPRE (Homo sapiens, UniProt P06401); assay: FAMA: inhibition of PR binding to flcPRE; conditions: binding to HRE, 5 concentrations 0.5-10 μM, sequential method
T1 construct: FLAG; made in house
T1 sequence (P06401 1-933): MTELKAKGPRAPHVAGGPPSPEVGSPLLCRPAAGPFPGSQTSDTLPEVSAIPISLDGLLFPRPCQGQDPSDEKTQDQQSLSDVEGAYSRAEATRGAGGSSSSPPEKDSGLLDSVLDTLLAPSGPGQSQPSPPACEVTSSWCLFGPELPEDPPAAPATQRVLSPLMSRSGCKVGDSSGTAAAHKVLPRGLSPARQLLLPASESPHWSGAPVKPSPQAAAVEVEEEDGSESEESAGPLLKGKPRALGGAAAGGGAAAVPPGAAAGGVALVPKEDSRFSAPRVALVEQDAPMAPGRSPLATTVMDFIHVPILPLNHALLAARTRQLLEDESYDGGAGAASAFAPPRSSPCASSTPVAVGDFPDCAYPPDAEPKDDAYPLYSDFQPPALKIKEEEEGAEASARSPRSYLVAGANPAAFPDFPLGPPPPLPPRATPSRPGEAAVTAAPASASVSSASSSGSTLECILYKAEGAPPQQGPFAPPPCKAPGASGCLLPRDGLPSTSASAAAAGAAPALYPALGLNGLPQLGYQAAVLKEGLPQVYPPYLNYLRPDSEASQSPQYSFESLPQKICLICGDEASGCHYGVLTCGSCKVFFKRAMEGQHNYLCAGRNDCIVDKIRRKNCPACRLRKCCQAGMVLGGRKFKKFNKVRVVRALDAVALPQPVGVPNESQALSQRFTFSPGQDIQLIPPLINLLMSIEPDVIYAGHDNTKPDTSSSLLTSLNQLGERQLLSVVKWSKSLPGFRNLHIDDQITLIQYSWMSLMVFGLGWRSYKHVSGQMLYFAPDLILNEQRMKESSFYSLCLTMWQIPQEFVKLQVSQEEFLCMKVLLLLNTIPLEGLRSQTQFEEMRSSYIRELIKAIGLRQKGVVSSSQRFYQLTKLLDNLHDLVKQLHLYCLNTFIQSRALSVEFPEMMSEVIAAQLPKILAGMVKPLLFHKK
Description: (§1) Dose response curves for selected compounds were carried out as described for the HTS screen except that each well contained the indicated concentration of test compound. PR assays were carried out in the same buffer used for ERα assays and contained 1 nM flcPRE and 11 nM PR-B and 100 nM progesterone. The buffer used for AR was similar but also contained 5 μM ZnCl, 5 mM NaF, 0.6 μM CHAPS and 100 nM dihydrotestosterone. AR assays contained 1 nM flcARE and 50 nM full-length wild-type AR.
(§2) Specificity was evaluated in dose-response studies by quantitative FAMA using purified full-length human PR binding to a fluorescein-labeled progesterone/glucocorticoid response element (flPRE) and full-length human androgen receptor (AR) binding to a fluorescein-labeled androgen response element (flARE).

[2] = biological target: T2, human androgen receptor (AR) binding to flARE (Homo sapiens, UniProt P10275); assay: FAMA: inhibition of AR binding to flcARE; conditions: binding to HRE, 5 concentrations 0.5-10 μM, sequential method
T2 construct: AR assays contained 1 nM flcARE and 50 nM full-length wild-type AR; FLAG; made in house
T2 sequence (P10275 1-920): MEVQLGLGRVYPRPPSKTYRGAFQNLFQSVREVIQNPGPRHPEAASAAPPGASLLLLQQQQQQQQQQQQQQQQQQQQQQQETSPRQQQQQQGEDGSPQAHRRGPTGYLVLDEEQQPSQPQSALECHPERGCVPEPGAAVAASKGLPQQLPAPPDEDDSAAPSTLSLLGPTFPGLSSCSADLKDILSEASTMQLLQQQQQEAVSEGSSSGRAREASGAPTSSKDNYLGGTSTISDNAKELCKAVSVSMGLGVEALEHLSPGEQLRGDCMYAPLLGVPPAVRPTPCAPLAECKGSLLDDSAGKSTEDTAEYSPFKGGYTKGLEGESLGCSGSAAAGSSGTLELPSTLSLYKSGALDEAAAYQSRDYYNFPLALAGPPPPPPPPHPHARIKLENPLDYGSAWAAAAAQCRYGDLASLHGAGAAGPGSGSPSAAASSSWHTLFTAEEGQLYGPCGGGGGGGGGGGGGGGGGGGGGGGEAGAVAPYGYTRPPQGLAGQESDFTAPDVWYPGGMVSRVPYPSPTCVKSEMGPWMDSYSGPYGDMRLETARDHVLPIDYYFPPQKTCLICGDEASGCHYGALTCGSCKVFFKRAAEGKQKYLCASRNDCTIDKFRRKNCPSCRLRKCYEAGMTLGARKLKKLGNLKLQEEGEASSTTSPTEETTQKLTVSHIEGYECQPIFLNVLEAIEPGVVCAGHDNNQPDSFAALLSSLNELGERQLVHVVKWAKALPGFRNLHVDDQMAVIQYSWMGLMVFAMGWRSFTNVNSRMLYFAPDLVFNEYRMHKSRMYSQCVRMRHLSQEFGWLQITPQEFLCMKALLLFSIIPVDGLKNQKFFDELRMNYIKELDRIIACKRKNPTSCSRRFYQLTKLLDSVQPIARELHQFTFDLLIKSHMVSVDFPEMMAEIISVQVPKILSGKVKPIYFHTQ
Description: as §1, §2

[3] = biological target: T3, human ERα binding to flcERE (Homo sapiens, UniProt P03372); assay: FAMA: inhibition of ERα binding to flcERE; conditions: FAMA, binding to HRE, 5 concentrations 0.5-10 μM, sequential method; read-out: IC50 ERα
T3 construct: Full-length FLAG-tagged human ERα was expressed and purified as described previously (27); FLAG; made in house
T3 sequence (P03372 1-595): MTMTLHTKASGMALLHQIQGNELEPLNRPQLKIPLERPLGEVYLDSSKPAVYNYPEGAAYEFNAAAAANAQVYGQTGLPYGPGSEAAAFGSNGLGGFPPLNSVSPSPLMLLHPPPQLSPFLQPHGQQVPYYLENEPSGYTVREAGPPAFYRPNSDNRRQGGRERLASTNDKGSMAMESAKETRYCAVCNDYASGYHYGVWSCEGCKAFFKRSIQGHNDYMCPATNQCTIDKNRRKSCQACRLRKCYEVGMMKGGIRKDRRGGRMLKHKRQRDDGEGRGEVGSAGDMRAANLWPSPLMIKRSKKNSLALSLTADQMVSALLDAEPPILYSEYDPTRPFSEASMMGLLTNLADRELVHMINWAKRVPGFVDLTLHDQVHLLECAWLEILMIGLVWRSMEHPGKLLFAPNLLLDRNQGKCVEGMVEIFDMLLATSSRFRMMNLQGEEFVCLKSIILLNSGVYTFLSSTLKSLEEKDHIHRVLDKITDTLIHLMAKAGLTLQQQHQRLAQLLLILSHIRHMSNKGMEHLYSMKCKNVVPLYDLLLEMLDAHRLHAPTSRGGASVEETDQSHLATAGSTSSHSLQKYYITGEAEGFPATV
Description: Prior to screening, the 10 mM library stocks were diluted to produce replica libraries in 384-well plates containing each small molecule at 0.25 mM (in DMSO). In our initial studies we were concerned that forming the flcERE-ERα complex first and then adding the candidate small molecule inhibitors would miss small molecules that bind at the interface. We therefore screened using the “sequential” method in which the candidate small molecules were first incubated with ERα and followed by addition of the flcERE. The assay for binding of ERα to the flcERE is a modification of our earlier assay (27). Assays were carried out at room temperature in black wall 384-well microplates (Greiner/Bio-One) in a total volume of 10 μl in buffer containing 20 mM Tris pH 7.5, 10% glycerol, 0.2 mM EDTA, 2 mM DTT, 100 mM KCl, 0.5 ng/μl poly dl:dC, […] bovine serum albumin and 100 nM 17β-estradiol (E2). For high throughput screening, a master mix without ERα and probe was prepared at 4° C. The master mix was divided into 2 parts. ERα was added to one part to 5 nM in the final assays. 7 μl of the ERα-containing mix was then dispensed into each well of a 384-well plate on ice. 100 nl of the compounds being tested was then added using a pin-transporter (V & P Scientific, Inc, CA) to a final concentration of 2.5 μM. The samples were mixed using the pin-transporter and sedimented by centrifugation for 2 min. at 4° C. and incubated on ice for 10 min. The flcERE probe was added to the other aliquot of the mix to 1 nM. 3 μl of the mix containing the flcERE probe was added to each well containing ERα and the test compound. The samples were mixed using the pin-transporter, the plates were briefly centrifuged and incubated at room temperature for 10 min. and fluorescence anisotropy (FA) was measured using a BMG PheraStar (BMG Labtech) microplate reader (module: 485 520) with excitation at 485λ and emission at 520λ. To identify small molecules that were highly fluorescent, or quench fluorescence, fluorescence intensity was also measured.
as §1

Structure (SMILES) | IC50 [1] [µM] | IC50 [2] [µM] | IC50 [3] [µM]
CCCCCCCCCC(=O)OC [Compound 3713] | 7 |  | 
O=C(O)/C=C/c1ccccc1Cl [Compound 4792] | > 10 | 7.5 | > 10
O=[N+]([O-])/C=C/c1ccco1 [Compound 5650] | 7.5 | 5.5 | 8
CCC1CCC(C)NC1 (stereo not shown) [Compound 6119] | 9 | 7.4 | 9
CCN(CC)CCOC(=O)c1cc(Br)cc(-c2ccccc2)c1O [Compound 7450] | > 10 | > 10 | 9.8
c1ccc(-c2oc(-c3ccccc3)c(CN3CCCCC3)c2CN2CCCCC2)cc1 [Compound 7473] | > 10 | > 10 | 9
Cc1ccccc1NCC(C)O (stereo not shown) [Compound 7484] | > 10 | > 10 | 9.5
O=C(O)c1cccc2cccc(-c3cccc4cccc(C(=O)O)c34)c12 [Compound 7810] | > 10 | > 10 | > 10
C=CCOC(=O)c1ccc(Cl)cc1 [Compound 8216] | > 10 | > 10 | 9
O=C1C(CO)C(CO)C(CO)C1CO (stereo not shown) [Compound 9064] | > 10 | > 10 | > 10
Nc1ccc(S(=O)(=O)c2ccc(NCN3C(=O)NC(=O)C(=O)C3=O)cc2)cc1 [Compound 34238] | > 10 |  | 1.8
C=C(CC(=O)O)C(=O)O.C=CC(=O)O [Compound 146443] | 0.4 |  | 
CCc1c(O)c2c(c(O)c1C(C)=O)C(=O)c1c(cc(O)c(C(=O)O)c1C(=O)O)C2=O [Compound 170008] |  | 9 | 9

The remaining lines, values ahead:

IC50 [1] [µM] | IC50 [2] [µM] | IC50 [3] [µM] | Structure (SMILES)
6.5 | 4.8 | 4.5 | O=C(OC1C2COC(O2)C(OC(=O)c2ccccc2)C1OC(=O)c1ccccc1)c1ccccc1 (stereo not shown) [Compound 1387]
1.2 | 0.7 | 0.6 | CN(C)c1ncnc2c1cnn2-c1ccc(Cl)cc1 [Compound 1445]
6 | 8 | 7 | CC1CCCCN1.CC1CCCCN1.[Cl][Cu][Cl] (stereo not shown) [Compound 1826]
 | 3 | 5 | O=C(O)/C=C/c1ccc([N+](=O)[O-])cc1 [Compound 2067]
2.7 | 1.7 | 2.1 | NNC(=O)OCc1ccccc1 [Compound 2287]
6.2 | 5.8 | 5.5 | CCNc1ccc(-c2ccc(NCC)cc2)cc1 [Compound 2674]
1.5 | 1 | 0.8 | CCCCC(C)O (stereo not shown) [Compound 3706]
2.9 |  | 2.5 | CCCCCCCC(=O)OC [Compound 3710]
6.5 | 7.5 | 3.7 | CNc1ccccc1O [Compound 3879]
> 10 | > 10 | 7.5 | Brc1cccs1 [Compound 4456]
4 | 4.8 | 2.5 | CCOC(=O)C(CC)(C(=O)OCC)C(C)C [Compound 4695]
2.7 | 2 | 2 | CCCN(C(C)=O)c1ccccc1 [Compound 4700]
8.8 | 6.5 | 8 | CC(C)CCOC(=S)S [Compound 4864]
7.3 | 4.5 | 6.5 | CCCCCCCCCCCCCCCC[N+](C)(C)CCN(Cc1ccc(OC)cc1)c1ncccn1 [Compound 5648]
5.3 | 3.7 | 5.8 | CC(C)/C=N/Nc1ccc([N+](=O)[O-])cc1[N+](=O)[O-] [Compound 6122]
 | > 10 | 5.8 | O=[N+]([O-])c1ccc(CO)o1 [Compound 6454]
> 10 |  | 5 | CC(=O)N(C)c1ccc(N)cc1 [Compound 7107]
 | 7.5 | 5 | O=C(CCBr)OCCc1ccccc1 [Compound 7122]
